Laboratory results as given in patent US8569335B2, “Compounds derived from taurine, process of their preparation and pharmaceutical compositions containing these” (EMS S.A., priority 2008, dated 2013).
Read-outs that look alike come from different tables or passages of the source.

How the values were obtained:
Wistar rat paw's edema = Wistar rat paw's edema induced by carragenin; format: in vivo; conditions: oral; dosage of 44 mg/kg (example 2), 130 mg/Kg (example 3), 182 mg/Kg (example 1)
Protocol: 14, p. 2589-99, 2006); ÖZTÜRK, G. et al. (ÖZTÜRK, G. et al. “New analgesic and antiinflammatory agents 4(1H)-pyridinone derivatives”, Europe Journal Medicinal Chemistry, v. 37, n. 10 p. 829-34, 2002); LOLLI, et al. (LOLLI, et al. “A new class of ibuprofen derivatives with reduced gastrotoxicity”, Journal of Medicinal Chemistry, v. 44, p. 3463-68, 2001). Besides these, a paw's edema test was performed using taurine as control of its derived compounds, in the dosage of 10 mg/Kg according to HIRATA, T. et al. (HIRATA, T. et al. “Cyclo-oxygenase isozymes in mucosal ulcergenic and functional responses following barrier disruption in rat stomachs”, British Journal of Pharmacology, v. 122, p. 447-54, 1997).
In order to confirm the biological activity of the compounds of the present invention, tests were performed according to the pharmacological model of Wistar rat paw's edema using groups of six animals. It was verified that, in the reported concentrations, in the presence of equimolar dosages of the compounds described in the articles above-mentioned, such as referral drugs, a reduction of the inflammatory process with the use of the compounds of the invention was observed.
The compounds of the present invention were administered 1 (one) hour prior the inoculation of the irritant agent carragenin in the paws of the animals, with the aid of a gavage tube, orally, using water as solvent.
The control group had the irritant agent carragenin applied to the bottom of their posterior paws and, orally, saline solution. […] Other groups of animals had the taurine derived of the present invention (embodiments corresponding to Examples 1, 2 and 3, respectively—orally) administered 60 minutes prior to the carragenin (bottom of the paw).
The posterior paws were measured prior to the treatments and at each hour, for 6 hours after the carragenin was administered, using an thickness meter, in order to measure their volume (in mm). The results were expressed by the difference between the paw's measurement readings before and after the treatments.

Wistar female rats = conditions: for survival: dosage of 1,000 mg/Kg
Protocol: Wistar female rats weighting between 200 and 250 g were used. […] To all studied groups, dosages of 1,000 and, alternatively, of 1,500 mg/kg were administered by gavage feeding.
After fourteen (14) days of administration and observation regarding the toxicity signs of general kind, effects on motion, behavior, breathing, number of deaths and form of occurrence, the animals that have survived were subjected to euthanasia in CO2 and had their organs such as heart, lungs, kidney, liver and stomach removed and weighted. For the analysis of the results were also considered the body weights.

gastric mucous membrane = assay: Gastric ulcerogenesis (gastric ulcerogenesis index, G.U.I.); format: in vivo; conditions: for alterations / color of the gastric mucous membrane: same animals as paw's edema model; for lesion index (gastric ulcerogenesis index): stomach 6 hours after paw readings, macroscopic and microscopic (640x)
Protocol: Gastric ulcerogenesis was verified in the same animals of the groups used for the model of paw's edema.
After 6 hours of the paw's measurement readings, the animals were subjected to euthanasia in CO2, and had their stomach removed, cut open in the longitudinal axis and washed with saline solution. In all experiments, the groups were composed of 6 animals, being kept the desired therapeutic activity, with absence of gastric lesions, and after the LD50 assays, it was concluded that the taurine derived compounds of the present invention are safe. It is worth observing, still, that other organs, such as lungs and intestine, as well as the macroscopic integrity of the other organs were kept preserved.
Through mucous membrane exposition, it was observed its color and integrity. In the case of lesions existence, they were counted and measured, according to the gastric ulcerogenesis index (G.U.I.) that follows numeric criteria for classification of lesions of the gastric mucous membrane: (lesions<1 mm=1; […]; 2.5 to 3.5 mm=3; 3.5 to 4.5 mm=4 and >4.5 mm=5). The obtained results were reported as averages±E. P. M. The results of the lesion experiment regarding the administration of the compounds of the present invention (embodiments corresponding to the Examples 1, 2 and 3) were neither macroscopically nor microscopically (640×) observed, being reported as lesion index of 0 (zero) value.

[1] = oral administration; literature (Merck Index); cited from earlier work
gastric ulceration = conditions: pre clinic tests; cited from earlier work
iNOS = target: T1, iNOS (Homo sapiens, UniProt P35228); assay: nitric oxide production by macrophages stimulated with LPS, indirect nitrite (NO2-) detection; format: cell-based; conditions: 24 hours
T1 construct: The assay used the maximum production of nitric oxide (macrophages stimulated with LPS); endogenous in cells

[2] = tested on: isolated gastric mucosal cells; conditions: cited from earlier work
gastric mucosal injury = conditions: rats pre-treated intragastrically with 250 or 500 mg/kg 1 to 3 days before 25 mg/kg indometacin; cited from earlier work

T1 sequence (P35228 whole entry, species assumed): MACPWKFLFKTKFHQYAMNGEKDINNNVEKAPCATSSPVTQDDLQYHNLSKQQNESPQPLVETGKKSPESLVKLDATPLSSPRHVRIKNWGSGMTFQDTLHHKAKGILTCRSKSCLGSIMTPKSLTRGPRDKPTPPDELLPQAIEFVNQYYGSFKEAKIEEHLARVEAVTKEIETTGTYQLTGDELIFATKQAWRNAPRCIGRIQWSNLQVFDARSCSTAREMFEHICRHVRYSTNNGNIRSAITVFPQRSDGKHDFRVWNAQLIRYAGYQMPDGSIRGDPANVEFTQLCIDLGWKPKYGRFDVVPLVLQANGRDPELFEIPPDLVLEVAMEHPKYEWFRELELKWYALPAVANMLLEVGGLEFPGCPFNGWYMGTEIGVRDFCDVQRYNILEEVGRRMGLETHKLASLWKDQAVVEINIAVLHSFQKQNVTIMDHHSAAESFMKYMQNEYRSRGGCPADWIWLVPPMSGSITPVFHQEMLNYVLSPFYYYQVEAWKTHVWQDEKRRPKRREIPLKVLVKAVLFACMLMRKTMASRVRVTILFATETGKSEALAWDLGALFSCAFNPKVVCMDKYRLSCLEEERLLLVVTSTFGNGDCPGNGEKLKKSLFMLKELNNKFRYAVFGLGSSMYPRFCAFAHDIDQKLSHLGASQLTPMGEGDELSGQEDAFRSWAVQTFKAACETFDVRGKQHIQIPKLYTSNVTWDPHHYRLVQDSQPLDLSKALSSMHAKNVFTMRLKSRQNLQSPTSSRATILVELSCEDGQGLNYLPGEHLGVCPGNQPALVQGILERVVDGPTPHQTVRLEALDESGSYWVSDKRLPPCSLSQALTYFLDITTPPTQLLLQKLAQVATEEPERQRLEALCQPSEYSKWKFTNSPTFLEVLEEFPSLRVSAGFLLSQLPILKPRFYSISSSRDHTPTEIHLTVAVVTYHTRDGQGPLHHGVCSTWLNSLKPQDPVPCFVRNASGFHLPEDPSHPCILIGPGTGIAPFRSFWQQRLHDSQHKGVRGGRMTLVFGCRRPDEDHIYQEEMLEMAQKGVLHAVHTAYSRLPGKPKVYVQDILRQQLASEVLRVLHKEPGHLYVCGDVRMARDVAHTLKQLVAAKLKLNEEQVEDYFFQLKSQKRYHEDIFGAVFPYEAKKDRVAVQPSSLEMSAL

## CC(C)Cc1ccc(C(C)C(=O)NCCS(=O)(=O)[O-])cc1.[Na+] (stereo not shown) [Compound 27, [2-(4-isobuthylphenyl)propanoyl]amide ethanesulfonic acid]
Wistar rat paw's edema
  anti inflammatory activity in paw's edema: anti inflammatory activity
Wistar female rats; any of the tested dosages (1,000 and 1,500 mg/kg), gavage
  deaths: no death in any of the tested dosages
Gastric mucous membrane
  alterations / color of the gastric mucous membrane: did not present any color alteration in the mucous membrane
  lesion index (gastric ulcerogenesis index): 0
Gastric mucous membrane; listed as Example 1
  alterations / color of the gastric mucous membrane: not observed alterations in the mucous membrane
[1]
  LD50: 1,050 mg/Kg

## COc1ccc2cc(C(C)C(=O)NCCS(=O)(=O)[O-])ccc2c1.[Na+] (stereo not shown) [Compound 63, 2-{[2-(6-methoxy-2-naphthyl)propanoyl]amide}ethanesulfonic acid]
Wistar rat paw's edema
  anti inflammatory activity in paw's edema: anti inflammatory activity
Wistar female rats; gavage
  survival: all animals survived
Wistar female rats; dosage of 1,500 mg/Kg, gavage
  deaths: 17%
Gastric mucous membrane
  alterations / color of the gastric mucous membrane: not observed alterations in the mucous membrane
  lesion index (gastric ulcerogenesis index): 0
[1]
  LD50: 1,234 mg/Kg

## COc1ccc2c(c1)c(CC(=O)NCCS(=O)(=O)[O-])c(C)n2C(=O)c1ccc(Cl)cc1.[Na+] [Compound 64]
Wistar rat paw's edema
  anti inflammatory activity in paw's edema: anti inflammatory activity
Wistar female rats; after the toxicity assay, 14 days
  weight of the organs (kidney, heart and liver) versus control animals: substantially close of those obtained with the control animals
Wistar female rats; gavage
  survival: no animal has died
Wistar female rats; dosage of 1,500 mg/Kg, gavage
  population survived: 66%
Gastric mucous membrane
  alterations / color of the gastric mucous membrane: not observed alterations in the mucous membrane
  lesion index (gastric ulcerogenesis index): 0

## COC(=O)[C@@H](N)CCCNC(=N)N[N+](=O)[O-] [L-NAME, N^G-nitro-L-arginine methyl esther]
Gastric ulceration
  change in gastric acidity: does not affect gastric acidity
  lesion rate: doubles
  reduction of nitric oxide (measured as nitrite): 50%

## N=C(N)NN [aminoguanidine]
iNOS
  inhibition of nitric oxide production (NOS inhibition activity): total inhibition of nitric oxide production

## CC(C)Cc1ccc(C(C)C(=O)O)cc1 (stereo not shown) [ibuprophen, reference compound]
Gastric mucous membrane
  alterations / color of the gastric mucous membrane: color alteration of the mucous membrane

## NCCS(=O)(=O)O [taurine, 2-aminoethanesulfonic acid]
[2]
  increase of cellular resistance: 21%
Gastric mucosal injury
  hemorrhagic gastric lesion: lesion reduction
